Data on six molecules can be found in paper PMC10745054, “A Synthetic Model of the Mucosa for Oral Penetration Studies” (Membranes, 2023).

Series [1] in a line: In vitro permeation through porcine skin, Franz diffusion cell. It is filed as in vitro ADME. To be noted: after 4 h. The source says:
Three types of membranes were used in this study, a synthetic membrane and two biological membranes, porcine skin and porcine sublingual oral mucosa. […] The biological membranes were a porcine sublingual mucosa and porcine skin. The porcine tongues with sublingual mucosa were supplied by the Faculty of Pharmacy of the University of Barcelona from the Hospital de Bellvitge campus according to the protocols of the ethics committee and with the supervision of the above institution. The mucous membrane was dermatomed to a thickness of 500–700 µm (Dermatome GA630, Aesculap, Tuttlingen, Germany), and portions of the sublingual oral mucosa were obtained to fit in the Franz diffusion cells. In addition, to determine the specific thickness, each mucosal portion was measured with a digital micrometer (MAHR, Göttingen, Germany). […]
(§1) Next, a pseudoinfinite dose (300 µL) of the drug or biocidal solution was applied to each Franz cell. […] The permeation of three biocides, Fungitrol (FUN), propiconazole (PRO), and permethrin (PER), was also determined. […]
The release of each compound was evaluated by determining the cumulative amount permeated (Qn, μg/cm^2), which corresponds to the cumulative amount of the substance quantified in the receiving liquid per unit of surface area of the applied sample [31]. […]

The nature of series [2]: In vitro permeation through Nuclepore synthetic membrane (intact or modified by formulation), Franz diffusion cell. It is filed as in vitro ADME. To be noted: for percent permeation: at 4 h.
Source text: (§2) Three types of membranes were used in this study, a synthetic membrane and two biological membranes, porcine skin and porcine sublingual oral mucosa. […] The biological membranes were a porcine sublingual mucosa and porcine skin. The porcine tongues with sublingual mucosa were supplied by the Faculty of Pharmacy of the University of Barcelona from the Hospital de Bellvitge campus according to the protocols of the ethics committee and with the supervision of the above institution. The mucous membrane was dermatomed to a thickness of 500–700 µm (Dermatome GA630, Aesculap, Tuttlingen, Germany), and portions of the sublingual oral mucosa were obtained to fit in the Franz diffusion cells. In addition, to determine the specific thickness, each mucosal portion was measured with a digital micrometer (MAHR, Göttingen, Germany). Porcine skin was obtained from the unboiled back of a Landrace large white pig (3 months old, weight around 40 kg) (supplied by the Department of Cardiology of the Clinic Hospital of Barcelona). Animal handling was approved by the Institutional Review Board and Ethics Committee of Institut d’Investigacions Biomèdiques August Pi i Sunyer (IDIBAPS), and the management of the animals conformed to the Guide for the Care and Use of Laboratory Animals. Porcine skin was dermatomed to a thickness of 500 ± 50 µm (Dermatome GA630, Aesculap, Germany) and stored at −20 °C until further use.
The Nuclepore synthetic membrane, sublingual mucosa, and porcine skin dermatomed to a thickness of 500–700 µm were used to evaluate the permeation of drug/biocidal compounds. These studies were performed using a Franz vertical diffusion cell (Lara Spiral, Couternon, France) as described before. […]
as §1
(§3) The release of each compound was evaluated by determining the cumulative amount permeated (Qn, μg/cm^2), which corresponds to the cumulative amount of the substance quantified in the receiving liquid per unit of surface area of the applied sample [31].
(§4) The experimental Qn and % compound release data were used to construct graphs showing permeation over time. […] The model was determined with the nonlinear regression software STATGRAPHICS plus 5 (Statgraphics Technologies, Inc., The Plains, VA, USA), and the best equation was selected based on the highest correlation coefficient corrected for the number of degrees of freedom (R^2 DoFs).
Parameters were obtained from the graph. Fluxes (J, μg/cm^2/h) from the tested compounds were calculated from the slope of the linear portion of the cumulative amounts permeated through the membrane per unit surface area versus time plot. […]

Series [3] can be described thus: In vitro permeation through porcine sublingual mucosa (intact or modified by formulation), Franz diffusion cell. It is filed as in vitro ADME.
Source text: as §2
The Nuclepore synthetic membrane, sublingual mucosa, and porcine skin dermatomed to a thickness of 500–700 µm were used to evaluate the permeation of drug/biocidal compounds. These studies were performed using a Franz vertical diffusion cell (Lara Spiral, Couternon, France) as described before. The receiving fluid (RF) used was PBS:EtOH (1:1) for drug permeation and EtOH:H2O (75:25) for biocide permeation, assuring sink conditions of the compounds.
Next, a pseudoinfinite dose (300 µL) of the drug or biocidal solution was applied to each Franz cell. Solutions were applied in triplicate to determine the kinetic parameters. […] The permeation of three biocides, Fungitrol (FUN), propiconazole (PRO), and permethrin (PER), was also determined. The biocides were dissolved in ethanol, each at a concentration of 1%.
Samples (0.2 mL) were collected at different times (0 h, 0.5 h, 1 h, 2 h, and 4 h), and the same volume of receptor fluid was immediately added back for replacement.
as §3, §4
Parameters were obtained from the graph. Fluxes (J, μg/cm^2/h) from the tested compounds were calculated from the slope of the linear portion of the cumulative amounts permeated through the membrane per unit surface area versus time plot. The permeability coefficients (Kp, cm/h) were obtained by dividing the J by the initial drug/biocide concentration. And Cmax represented the maxima concentration permeated for each active substance.
As in the previous TMWL assay, dermatomed porcine sublingual mucosa and split skin at a thickness of 500–700 µm as well as the synthetic Nuclepore membrane were used in this study.

The conditions of series [4]: cited from earlier work.

For `Cn1c(=O)c2c(ncn2C)n(C)c1=O` [Caffeine], the percent permeation entry was “approximately 10%” in series [1]; 65% in series [2] (Nuclepore modified with formulation 6 (NP F6)); 40% in series [2] (Nuclepore modified with hydrophobic formulation 3 (NP F3)); 40% in series [2] (Nuclepore modified with liposomal formulation 16 (printed NP F6)); 60% in series [3] (mucosa modified with formulation 6 (MUC F6), at 4 h); “approximately 10%” in series [3] (mucosa modified with hydrophobic formulation 3 (MUC F3), at 4 h). For the same molecule, in series [3] (mucosa modified with liposomal formulation 16 (printed MUC F6), at 4 h), the percent permeation result was “approximately 10%”. The molecule also registered a maximum permeation in series [2] (Nuclepore membrane (NP), between 0.5 and 4 h) of 50%. Moreover, the “Permeability Coef. Kp” value was 8.3 ± 2.5 10^−3 cm/h in series [3] (MUCOSA F3: mucosa modified with formulation 3), 49.3 ± 0.1 10^−3 cm/h in series [3] (MUCOSA F6: mucosa modified with formulation 6) and 6.4 ± 0.9 10^−3 cm/h in series [3] (MUCOSA F16: mucosa modified with formulation 16). The “percent permeation (release)” value in series [3] (sublingual mucosa (MUC), at 4 h) is given as 40%.

For `C[C@@H]1C[C@H]2[C@@H]3CCC4=CC(=O)C=C[C@]4(C)[C@@]3(F)[C@@H](O)C[C@]2(C)[C@@]1(O)C(=O)CO` [Dexametasone, dexamethasone], the “Log Ko/w (pH 7.4)” value in series [4] is 1.8 [40].

Take `O=C(c1ccccc1)c1ccc2n1CCC2C(=O)O` (centres unmarked) [Ketorolac tromethamine, ketorolac tromethamine]: the “Log Ko/w (pH 7.4)” value in series [4] is 2.3 [39].

Take `CC1(C)C(C=C(Cl)Cl)C1C(=O)OCc1cccc(Oc2ccccc2)c1` (centres unmarked) [Permethrin, permethrin]: the “Log Ko/w (pH 7.4)” value in series [4] is 6.5 [44].

On to `CCCC1COC(Cn2cncn2)(c2ccc(Cl)cc2Cl)O1` (centres unmarked) [Propiconazole, propiconazole], for which the “Log Ko/w (pH 7.4)” value in series [4] is 3.5 [43].

Fungitrol: the “Log Ko/w (pH 7.4)” value in series [4] is 2.4 [42].
